According to patent publication US10471046B2, “Method for treating, preventing, or reducing the risk of skin infection” (Melinta Subsidiary Corp., priority 2014, dated 2019):
≈ marks a conversion by molar mass, not a printed value.

System: S. aureus
Test: Minimum inhibitory concentrations (MICs) for S. aureus of exemplary compounds (Table 2)
Assay type: cell-based
Details: Staphylococcus aureus, minimum inhibitory concentrations for S. aureus; read-out: MICs
Outline: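 Growth of S. aureus in media with or without compound, by broth microdilution in microtiter trays following NCCLS M7-A5 guidelines. Values are MICs in μg/mL.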

Row | Structure (SMILES) | MIC [µg/mL]
1 | CC(=O)NC[C@H]1CN(c2ccc(-c3ccc(C(C)NCc4ccoc4)cc3)c(F)c2)C(=O)O1 (mixture of isomers) [Compound 4144, N-[3-(2-Fluoro-4′-{1-(R/S)-[(furan-3-ylmethyl)-amino]-ethyl}-biphenyl-4-yl)-2-oxo-oxazolidin-5-(S)-ylmethyl]-acetamide] | 4
2 | CC(=O)NC[C@H]1CN(c2ccc(-c3ccc(CNCc4ccc(-c5ccccc5)s4)cc3)c(F)c2)C(=O)O1 [Compound 4084, N-[3-(2-Fluoro-4′-{[(5-phenyl-thiophen-2-ylmethyl)-amino]-methyl}-biphenyl-4-yl)-2-oxo-oxazolidin-5-(S)-ylmethyl]-acetamide] | 128 (≈ 242 µM)
3 | CC(=O)NC[C@H]1CN(c2ccc(-c3ccc(CN(C)Cc4cc(Cl)cc(Cl)c4)cc3)c(F)c2)C(=O)O1 [Compound 4046, N-[3-(4′-{[(3,5-Dichloro-benzyl)-methyl-amino]-methyl}-2-fluoro-biphenyl-4-yl)-2-oxo-oxazolidin-5-(S)-ylmethyl]-acetamide] | 4 (≈ 7.54 µM)
4 | CC(=O)NC[C@H]1CN(c2ccc(-c3ccc(CNC(=O)COc4ccc(Cl)cc4Cl)cc3)c(F)c2)C(=O)O1 [Compound 5014, N-{4′-[5-(S)-(Acetylamino-methyl)-2-oxo-oxazolidin-3-yl]-2′-fluoro-biphenyl-4-ylmethyl}-2-(2,4-dichloro-phenoxy)-acetamide] | 16 (≈ 28.6 µM)
5 | CC(=O)NC[C@H]1CN(c2ccc(-c3ccc(C(C)NC(C)c4ccncc4)cc3)c(F)c2)C(=O)O1 (mixture of isomers) [Compound 4160, N-(3-{2-Fluoro-4′-[1-(R/S)-(1-pyridin-4-(R/S)-yl-ethylamino)-ethyl]-biphenyl-4-yl}-2-oxo-oxazolidin-5-(S)-ylmethyl)-acetamide] | 8 (≈ 16.8 µM)
6 | COc1ccc(CN(C)Cc2ccc(-c3ccc(N4C[C@H](CNC(C)=O)OC4=O)cc3F)cc2)cn1 [Compound 4055, N-[3-(2-Fluoro-4′-{[(6-methoxy-pyridin-3-ylmethyl)-methyl-amino]-methyl}-biphenyl-4-yl)-2-oxo-oxazolidin-5-(S)-ylmethyl]-acetamide] | 2 (≈ 4.06 µM)

Other lines, results leading:

Row | MIC [µg/mL] | Structure (SMILES)
7 | 0.25 (≈ 0.611 µM) | CC(=O)NC[C@H]1CN(c2ccc(-c3ccc(Cn4ccnn4)cc3)c(F)c2)C(=O)O1 [Compound 1015, N-[3-(2-Fluoro-4′-[1,2,3]triazol-1-ylmethyl-biphenyl-4-yl)-2-oxo-oxazolidin-5-(S)-ylmethyl]-acetamide]
8 | 0.5 (≈ 1.03 µM) | CC(=O)NC[C@H]1CN(c2ccc(-c3ccc([C@H](O)CN4CCN(C=O)CC4)cc3)c(F)c2)C(=O)O1 [Compound 1044, N-(3-{2-Fluoro-4′-[2-(4-formyl-piperazin-1-yl)-1-(S)-hydroxy-ethyl]-biphenyl-4-yl}-2-oxo-oxazolidin-5-(S)-ylmethyl)-acetamide]
9 | 0.5 (≈ 0.991 µM) | CC(=O)NC[C@H]1CN(c2ccc(-c3ccc(CNCc4nc5ccccc5s4)cc3)c(F)c2)C(=O)O1 [Compound 4121, N-[3-(4′-{[(Benzothiazol-2-ylmethyl)-amino]-methyl}-2-fluoro-biphenyl-4-yl)-2-oxo-oxazolidin-5-(S)-ylmethyl]-acetamide]
10 | 0.25 (≈ 0.467 µM) | CC(=O)NC[C@H]1CN(c2ccc(-c3ccc(CNC(=O)/C=C/c4c(C)[nH]c(=O)[nH]c4=O)cc3)c(F)c2)C(=O)O1 [Compound 4001, N-{4′-[5-(S)-(Acetylamino-methyl)-2-oxo-oxazolidin-3-yl]-2′-fluoro-biphenyl-4-ylmethyl}-3-(6-methyl-2,4-dioxo-1,2,3,4-tetrahydro-pyrimidin-5-yl)-acrylamide]
11 | 1 (≈ 2.35 µM) | CC(=O)NC[C@H]1CN(c2ccc(-c3ccc(Cn4ccnc4)c(F)c3)c(F)c2)C(=O)O1 [Compound 1010, N-[3-(2,3′-Difluoro-4′-imidazol-1-ylmethyl-biphenyl-4-yl)-2-oxo-oxazolidin-5-(S)-ylmethyl]-acetamide]
12 | 2 (≈ 3.73 µM) | CC(=O)NC[C@H]1CN(c2ccc(-c3ccc(Cn4cnc5c(NCCCF)ncnc54)cc3)c(F)c2)C(=O)O1 [Compound 1098, N-(3-{2-Fluoro-4′-[6-(3-fluoro-propylamino)-purin-9-ylmethyl]-biphenyl-4-yl}-2-oxo-oxazolidin-5-(S)-ylmethyl)-acetamide]
